Reference: PMC6748385 (Toxicology and applied pharmacology, 2019)
Read-outs that look alike come from different tables or passages of the source.

Tests used:
Test in all cases: ERE-luciferase transactivation, HELN-zfER cells
Type in all cases: cell-based
[1] = biological target: zfERβ2 (Esr2a) (Danio rerio, UniProt Q7ZU32)
[2] = biological target: T1, zfERβ1 (Esr2b) (Danio rerio, UniProt Q5PR29)
T1 sequence (Q5PR29 1-592): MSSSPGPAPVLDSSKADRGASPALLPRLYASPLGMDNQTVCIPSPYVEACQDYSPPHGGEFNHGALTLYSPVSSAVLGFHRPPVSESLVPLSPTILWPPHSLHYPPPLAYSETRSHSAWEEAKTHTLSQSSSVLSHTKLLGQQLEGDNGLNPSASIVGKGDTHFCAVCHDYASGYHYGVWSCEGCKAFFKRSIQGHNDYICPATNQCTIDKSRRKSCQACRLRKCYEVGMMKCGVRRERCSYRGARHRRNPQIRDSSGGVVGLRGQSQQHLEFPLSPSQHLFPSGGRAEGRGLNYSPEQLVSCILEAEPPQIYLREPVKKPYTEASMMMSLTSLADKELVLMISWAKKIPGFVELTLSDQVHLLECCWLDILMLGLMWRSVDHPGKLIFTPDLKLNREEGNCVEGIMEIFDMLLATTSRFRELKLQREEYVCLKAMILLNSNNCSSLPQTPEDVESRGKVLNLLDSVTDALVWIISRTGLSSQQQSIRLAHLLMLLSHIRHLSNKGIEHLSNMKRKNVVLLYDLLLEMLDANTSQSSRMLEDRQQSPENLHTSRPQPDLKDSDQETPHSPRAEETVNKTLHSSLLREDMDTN

[3] = biological target: T2, zfERα (Esr1) (Danio rerio, UniProt P57717)
T2 sequence (P57717 1-569): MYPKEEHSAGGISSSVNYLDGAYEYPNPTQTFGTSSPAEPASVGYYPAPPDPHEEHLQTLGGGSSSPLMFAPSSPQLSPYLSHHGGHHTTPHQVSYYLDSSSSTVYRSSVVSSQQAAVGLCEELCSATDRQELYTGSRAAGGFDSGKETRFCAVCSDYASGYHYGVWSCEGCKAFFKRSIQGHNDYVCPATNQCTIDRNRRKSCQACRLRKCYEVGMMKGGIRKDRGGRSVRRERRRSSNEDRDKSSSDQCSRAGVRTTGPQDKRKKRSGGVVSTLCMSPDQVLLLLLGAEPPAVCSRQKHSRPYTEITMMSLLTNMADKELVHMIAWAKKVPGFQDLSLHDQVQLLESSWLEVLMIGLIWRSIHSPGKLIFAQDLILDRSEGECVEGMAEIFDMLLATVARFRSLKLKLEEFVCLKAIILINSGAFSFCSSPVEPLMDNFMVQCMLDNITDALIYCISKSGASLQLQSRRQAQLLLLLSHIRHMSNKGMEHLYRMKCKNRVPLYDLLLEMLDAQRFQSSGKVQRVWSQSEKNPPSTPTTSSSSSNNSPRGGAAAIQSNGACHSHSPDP

Sequence of zfERβ2 (Esr2a) (Q7ZU32 1-553): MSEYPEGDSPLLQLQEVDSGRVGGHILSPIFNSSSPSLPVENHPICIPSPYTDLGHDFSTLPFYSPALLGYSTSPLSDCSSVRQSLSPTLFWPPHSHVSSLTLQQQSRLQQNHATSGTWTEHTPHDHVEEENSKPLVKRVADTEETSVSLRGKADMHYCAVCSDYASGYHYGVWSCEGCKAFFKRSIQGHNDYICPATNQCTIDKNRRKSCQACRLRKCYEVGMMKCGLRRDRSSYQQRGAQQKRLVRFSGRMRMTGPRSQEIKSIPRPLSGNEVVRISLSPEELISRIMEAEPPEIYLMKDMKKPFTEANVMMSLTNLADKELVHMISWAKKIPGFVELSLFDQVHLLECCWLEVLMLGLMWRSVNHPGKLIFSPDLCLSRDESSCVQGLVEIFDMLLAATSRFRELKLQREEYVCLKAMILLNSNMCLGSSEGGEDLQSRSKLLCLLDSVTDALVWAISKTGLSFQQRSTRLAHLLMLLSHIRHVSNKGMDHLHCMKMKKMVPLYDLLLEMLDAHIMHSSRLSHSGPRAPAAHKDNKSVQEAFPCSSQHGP

EC50 [1] [µM] | EC50 [2] [µM] | EC50 [3] [µM] | Compound | EC50 ([1]; read-out: zfERβ2, agonist mode, 16 h, 28°C) [µM] | EC50 ([2]; read-out: zfERβ1, agonist mode, 16 h, 28°C) [µM] | EC50 ([3]; read-out: zfERα, agonist mode, 16 h, 28°C) [µM]
0.0695 ± 0.0175 | 0.271 ± 0.045 | 0.00065 ± 0.0001 | C[C@]12CC[C@@H]3c4ccc(O)cc4CC[C@H]3[C@@H]1C[C@H]1OC(=O)C[C@]12O [16α-LE2, 3,17-Dihydroxy-19-nor-17α-pregna-1,3,5(10)-triene-21,16α-lactone] |  |  | 
 |  |  | Oc1ccc(C(c2ccc(O)cc2)(C(F)(F)F)C(F)(F)F)cc1 [BPAF] | 0.897 ± 0.268 | 0.758 ± 0.131 | 0.084 ± 0.027
2.8 ± 0.562 | 3.33 ± 0.381 | 0.469 ± 0.042 | CC(C)(c1ccc(O)cc1)c1ccc(O)cc1 [BPA] |  |  | 
